Laboratory results taken from US6022895A, “Substituted amino compounds and their use as substances having an analgesic effect” (priority 1997, dated 2000).
Structures can show the parent of a compound that is named as a salt.

Tested on: μ-receptors
Test: not given
Conditions: background statement; cited from earlier work

SMILES | selective binding to μ-receptors
CN1CC[C@]23c4c5ccc(O)c4O[C@H]2[C@@H](O)C=C[C@H]3[C@H]1C5 [morphine] | selectively binds to what are termed μ-receptors

Molecular target: T1, δ opiate receptor (Rattus norvegicus, UniProt P33533)
T1 construct: The rat brain, which was freshly prepared in each case, was homogenized; from tissue; host or cells: brain of male Wistar rats, without the cerebellum, pons and medulla oblongata (membrane homogenate)
Test: δ opiate receptor binding (displacement of (3H)-2-D-ala-deltorphin II, rat brain membrane homogenate)
Parameters: species or system male Wistar rats
Conditions: mean values ± standard deviations of ≥3 independent tests; 1 nmole/l (3H)-2-D-ala-deltorphin II; pH 7.4; 90 minutes at 37° C.; Ki from IC50 by Cheng-Prussoff equation
Method: δ Opiate Receptor Binding Investigations
Tests to determine the affinity of the compounds of formula (I) according to the invention for the δ opiate receptor were performed on meninx homogenates (a homogenate of the brain of male Wistar rats, without the cerebellum, pons and medulla oblongata).
The rat brain, which was freshly prepared in each case, was homogenized for this purpose, while being cooled in ice, in 50 mmoles/l Tris-HCl (pH 7.4) and was centrifuged for 10 minutes at 5000 g and 4° C. After decanting and discarding the supernatant liquor, and taking up and homogenising the membrane sediment again in […] Tris-HCl (pH 7.4), the homogenate was subsequently centrifuged for 20 minutes at 20,000 g and 4° C. This washing step was repeated once more. Thereafter, the supernatant liquor was decanted, the membrane sediment was homogenized in cold 50 mmoles/l Tris-HCl, 20% glycerol (w/v), 0.01% bacitracin (w/v) (pH 7.4), and was frozen in aliquots until testing was performed. For the receptor binding tests, the aliquots were thawed and diluted 1:10 with the binding test buffer.
50 mmoles/l Tris-HCl, 5 mmoles/l MgCl2 (pH 7.4) supplemented with 0.1% (w/v) bovine serum albumin, with 1 nmole/l (^3 H)-2-D-ala-deltorphin II as the radioactive ligand, was used as the buffer in the binding test. The proportion of non-specific binding was determined in the presence of 10 μmoles/l naloxone.
In further batches, the compounds according to the invention were added in a series of concentrations and the displacement of the radioactive ligand from its specific binding was determined. The respective triple batches were incubated for 90 minutes at 37° C. and were subsequently harvested by means of filtration through glass fiber filters (GF/B) for the determination of the radioactive ligand bound to the membrane homogenate. The radioactivity of the glass fiber filter discs was measured in a β-counter after adding a scintillator.
The affinity of the compounds according to the invention for the δ opiate receptor was calculated by the mass action law, by means of non-linear regression, as the IC50 value. Ki values were calculated from the IC50 values using the Cheng-Prussoff equation. The Ki values are given as mean values ± standard deviations of ≥3 tests which were independent of each other.

T1 sequence (P33533 whole entry): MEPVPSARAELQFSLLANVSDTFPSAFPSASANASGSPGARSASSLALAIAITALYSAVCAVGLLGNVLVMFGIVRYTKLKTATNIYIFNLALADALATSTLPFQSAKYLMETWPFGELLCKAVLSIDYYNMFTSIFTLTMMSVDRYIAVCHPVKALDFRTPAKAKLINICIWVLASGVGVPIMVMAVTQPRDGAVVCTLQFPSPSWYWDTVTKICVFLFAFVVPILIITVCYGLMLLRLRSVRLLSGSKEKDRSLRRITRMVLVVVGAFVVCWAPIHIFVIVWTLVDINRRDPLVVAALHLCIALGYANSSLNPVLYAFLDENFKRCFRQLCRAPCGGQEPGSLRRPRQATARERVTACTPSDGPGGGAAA

SMILES | Ki [nM]
CCCCc1ccc2c(c1)C(c1cccc(O)c1)=C(CN(C)C)CC2 [Example 9c, 3-(7-n-butyl-2-dimethylaminomethyl-3,4-dihydronaphth-1-yl)-phenol hydrochloride] | 42.2 ± 16
CN(C)CC1=C(c2cccc(O)c2)c2ccccc2CC1 [Example 1, 3-(2-dimethylaminomethyl-3,4-dihydro-naphth-1-yl)-phenol hydrochloride] | 55.8 ± 4.6
COc1cccc2c1CCC(CN(C)C)=C2c1ccccc1 [Example 4, (5-methoxy-1-phenyl-3,4-dihydro-naphth-2-ylmethyl)-dimethylamine hydrochloride] | 517 ± 45
CN(CCc1ccccc1)CC1=C(c2cccc(O)c2)c2ccccc2CCC1 [Example 2d, 3-{6-[(methyl-phenethyl-amino)-methyl]-8,9-dihydro-7H-benzocyclohepten-5-yl}-phenol hydrochloride] | 54.3 ± 8.2
CC(CN(C)C)=C(c1cccc(O)c1)c1cccc(O)c1 [Example 11a, 3-[3-dimethylamino-1-(3-hydroxyphenyl)-2-methyl-propenyl]-phenol hydrochloride] | 34 ± 5.8
C/C(CN(C)C)=C(\c1ccc(-c2ccccc2)cc1)c1cccc(O)c1 [Example 11b, Z-3-(1-biphenyl-4-yl-3-dimethylamino-2-methyl-propenyl)-phenol hydrochloride] | 23.7 ± 1.7
CN(C)CC1=C(c2cccc(O)c2)c2cc(-c3ccccc3)ccc2CC1 [Example 9b, 3-(2-dimethylaminomethyl-7-phenyl-3,4-dihydronaphth-1-yl)-phenol hydrochloride] | 39.3 ± 2.2
CN(C)CC1=C(c2cccc(O)c2)c2ccccc2CCCC1 [Example 2f, 3-(6-dimethylaminomethyl-7,8,9,10-tetrahydrobenzocycloocten-5-yl)-phenol h ydrochloride] | 46.3 ± 10.1
CN(CC1=C(c2cccc(O)c2)c2ccccc2CCC1)Cc1ccccc1 [Example 2e, 3-{6-[(benzyl-methyl-amino)-methyl]-8,9-dihydro-7H-benzocyclohepten-5-yl}-phenol hydrochloride] | 936 ± 32
COc1ccc2c(c1)CCC(CN(C)C)=C2c1ccccc1 [Example 3, (6-methoxy-1-phenyl-3,4-dihydro-naphth-2-ylmethyl)-dimethylamine hydrochloride] | 456 ± 62
CN(CC1=C(c2cccc(O)c2)c2ccccc2CCC1)CC1CC1 [Example 2g, 3-{6-[(cyclopropylmethyl-methyl-amino)-methyl]-8,9-dihydro-7H-benzocyclohepten-5-yl}-phenol hydrochloride] | 182 ± 12
CCCN(CCC)CC1=C(c2cccc(O)c2)c2ccccc2CCC1 [Example 2c, 3-(6-di-n-propylaminomethyl-8,9-dihydro-7H-benzocyclohepten-5-yl)-phenol h ydrochloride] | 294 ± 106
CCN(CC)CC1=C(c2cccc(O)c2)c2ccccc2CCC1 [Example 2b, 3-(6-diethylaminomethyl-8,9-dihydro-7H-benzocyclohepten-5-yl)-phenol hydrochloride] | 728 ± 146
CN(C)CC1=C(c2cccc(O)c2)c2ccc(O)cc2CC1 [Example 6, 6-dimethylaminomethyl-5-(3-hydroxy-phenyl)-7,8-dihydro-naphth-2-ol hydrochloride] | 40.9 ± 6.7
CN(C)CC1=C(c2cccc(O)c2)c2ccc3ccccc3c2CC1 [Example 2j, 3-(2-dimethylaminomethyl-3,4-dihydro-phenanthren-1-yl)-phendlydrochloride] | 80.8 ± 29.7
CN(C)CC1=C(c2cccc(O)c2)c2ccccc2C1 [Example 2i, 3-(2-dimethylaminomethyl-3H-inden-1-yl)-phenol hydrochloride] | 157 ± 16
CN(C)CC1=C(c2cccc(O)c2)c2ccccc2CCC1 [Example 2a, 3-(6-dimethylaminomethyl-8,9-dihydro-7H-benzo-cyclohepten-5-yl)-phenol hydrochloride] | 17.2 ± 4.3
C=CCN(C)CC1=C(c2cccc(O)c2)c2ccccc2CCC1 [Example 10, 3-{6-[allyl-methyl-amino)-methyl]-8,9-dihydro-7H-benzocyclohepten-5-yl}-phenol hydrochloride] | 679 ± 214
CN(C)CC1=C(c2cccc(O)c2)c2cc(Oc3ccccc3)ccc2CC1 [Example 8, 3-(2-dimethylaminomethyl-7-phenoxy-3,4-dihydro-naphth-1-yl)-phenol hydrochloride] | 25.7 ± 10.2
COc1cccc2c1CCC(CN(C)C)=C2c1cccc(O)c1 [Example 9a, 3-(2-dimethylaminomethyl-5-methoxy-3,4-dihydronaphth-1-yl)-phenol hydrochloride] | 23.9 ± 0.9
CN(CCc1ccccn1)CC1=C(c2cccc(O)c2)c2ccccc2CCC1 [Example 2h, 3-(6-{[methyl-(2-pyridin-2-yl-ethyl)-amino]-methyl)-8,9-dihydro-7H-benzocyclohepten-5-yl)-phenol dihydrochloride] | 223 ± 86
